This is an account of results in patent US20100113453A1, “Sublingual Formulations of D-Cycloserine and Methods of Using Same” (priority 2007, published 2010).

Data set [1] can be described thus: Absorption into the blood following sublingual versus oral administration of D-cycloserine. In kind it is in vivo, Sprague-Dawley rats. To be noted: rat; for concentration at 0 min / concentration at 10 min / concentration at 20 min / concentration at 40 min / concentration at 80 min: male, Sprague-Dawley, plasma, 15 mg/kg, read-out: DCS plasma level; for concentration at 0 min: 0 minutes (baseline before DCS administration); for concentration at 10 min: 10 minutes elapsed; for concentration at 20 min: 20 minutes elapsed; for concentration at 40 min: 40 minutes elapsed; for concentration at 80 min: 80 minutes elapsed. How it is done:
Subjects: 18 male, Sprague-Dawley rats (Charles River, Raleigh N.C.).
Procedure: The rats were implanted with intravenous catheters using the methods of Thrivikraman et al., (“Jugular vein catheterization for repeated blood sampling in the unrestrained conscious rat” (2002) Brain Res. Brain Res. Protoc., 10(2), p. 84-94). Following two days of recovery, rats were lightly anesthetized with isofluorothane and given DCS either sublingually (n=10) or orally (n=8). D-cycloserine was dissolved in saline and given at a volume of 75 μL/rat sublingually and (after dilution by a factor of two) 150 μL/rat when administered orally (concentration of 15 mg/kg). Aliquots of 0.5-1.0 mL blood samples were collected: at baseline before DCS administration; and subsequently at 10, 20, 40, and 80 minutes after DCS administration. Blood samples were injected into pre-heparinized tubes and immediately placed on ice. Because the assays required at least 1 mL of plasma, samples from two rats given the same treatment and sampled at the same time were combined so that there were 25 samples from the sublingual group (10 rats/2×5 samples) and 20 samples from the oral group (8 rats/2×5 samples). Plasma was separated by centrifugation at 770 g for 10 minutes, placed in polypropylene tubes, frozen at −80° C., then shipped on dry ice to an outside laboratory to assay DCS levels. […] At the dosages studied, the resulting DCS plasma levels were near the lower detection limits of the assay.

Data set [2] deals with Mycobacterium tuberculosis strains. The note with it: typical Mycobacterium tuberculosis strains; cited from earlier work.
For data set [3] the following is noted: cited from earlier work.
The conditions of data set [4]: typical doses for the treatment of tuberculosis (500-1000 mg/day), chronic dosing; cited from earlier work.
The conditions of data set [5]: sub-antimicrobial dose, cited from earlier work.

Read-outs that look alike come from different tables or passages of the source.

By half-life is commonly meant the time needed for the level to fall by half in the phase considered. With `NC1CONC1=O` (stereo not drawn) [DCS, 4-amino-1,2-oxazolidin-3-one], in data set [1] (other: sublingual, sublingual), the concentration at 0 min amounted to 0 ng/mL, the concentration at 10 min came to 900 ng/mL, the concentration at 20 min was 1600 ng/mL and the concentration at 40 min came to 4700 ng/mL. Moreover, the concentration at 80 min in data set [1] (other: sublingual, sublingual) is 5200 ng/mL. In data set [1] (oral), the concentration at 0 min came to 0 ng/mL, the concentration at 10 min came to 1600 ng/mL, the concentration at 20 min worked out at 2300 ng/mL and the concentration at 40 min was 5400 ng/mL. Also, in data set [1] (oral), the concentration at 80 min is 5400 ng/mL. For the same molecule, the “blood plasma concentrations after sublingual administration relative to oral administration” value in data set [1] (sublingual versus oral) is listed as “comparable to those achieved by oral administration”. In data set [2], the “minimum inhibitory concentrations (MIC) in vitro” value was 6 to 25 µg/mL. The “serum concentrations generally maintained” value in data set [3] (dose of 500 mg/day, chronic treatment) was 25000 to 30000 ng/mL. Also, in data set [3] (known oral tablets, primarily renal excretion), the half-life is 10 h. For the same molecule, the “time of peak serum concentrations after dosing” value in data set [3] (known oral tablets) is 3 to 8 h. For the same molecule, in data set [4], the “side effects in treated subjects” value is “significant neurological side effects”. Also, the peak serum concentrations result in data set [5] (child subject, less than or equal to 2 mg/kg) is on record as “less than or equal to 5 μg/mL”. For the same molecule, in data set [5] (less than or equal to 2 mg/kg and greater than about 0.2 mg/kg), the peak serum concentrations result is “less than or equal to 5 μg/mL”.
